{"source": "patent US4857310A", "about": "“Triglyceride quaternary ammonium compounds, their preparation and use” (The Gillette Company, priority 1987, dated 1989)", "experiment": "absorption of moisturizing composition by the skin", "assay_type": "in vivo", "conditions": "replacing 20% by weight of the avocado oil or apricot kernel oil in moisturizing compositions", "from_the_text": "The triglyceride quaternary ammonium compounds of formula I in which R is C16 -C20 alkyl are valuable additives to a range of cosmetic and toiletry compositions. They are particularly useful in moisturizing compositions containing natural triglycerides which are not easily absorbed by the skin. Examples of such natural triglycerides are avocado oil and apricot kernel oil which are the major natural triglyceride oil components of certain commercially available moisturizing lotions and creams.", "data": [{"smiles": "CCCCCCCCCCCCCCCCCC[N+](C)(C)CC(=O)OC(CC=CCCCCCCCC(=O)OCC(COC(=O)CCCCCCCC=CCC(CCCCCC)OC(=O)C[N+](C)(C)CCCCCCCCCCCCCCCCCC)OC(=O)CCCCCCCC=CCC(CCCCCC)OC(=O)C[N+](C)(C)CCCCCCCCCCCCCCCCCC)CCCCCC", "note": "(stereo not shown) [Example 1, propane-1,2,3-tri[octadec-9-en-12-(oxycarbonyl-N-methylene-N,N-dimethyl-N-octadecylammonium chloride)oate]]", "values": [{"measurement": "improvement in the absorption of the composition by the skin", "result": "significant improvement"}]}]}
